The source of these data is patent publication EP0705258B1, “AZOLYL-CYCLIC AMINE DERIVATIVES WITH IMMUNOMODULATORY ACTIVITY” (Knoll AG, priority 1993, dated 1995).

For the first assay, the system named is Zymosan Stimulated Macrophages. Kind of assay: Inhibition of Arachidonic Acid Release from Zymosan Stimulated Macrophages (Test D). As to conditions: Mus musculus, Macrophage, tested at 100, 50, 20, 10, 5 and 1 µM. Format: cell-based, MF1 mice. The method, then: Female MF1 mice (weighing 20 to 25 g) were killed using a rising concentration of CO2. The mice were laid on their backs and the abdomens wiped with 70% alcohol. The skin was pulled back, exposing the peritoneal wall. Medium A (5 ml) (see below) was injected into the peritoneal cavity of each mouse followed by approximately 1 ml of air using a 20 ml syringe and a 21G x 40 mm needle in order to form a suspension of macrophage cells. The medium and cells were then removed using a 19G x 40 mm needle. The resulting suspension was returned to a sterile beaker kept on ice. The extracts from all the mice were pooled and this pooled cell suspension was counted using a Coulter counter and adjusted to a final cell count of 1 - 1.3 x 10^6 cells/ml prior to labelling with [^3H]-arachidonic acid. Typically five mice provided sufficient cells for each multiwell plate. Sufficient [^3H]arachidonic acid in ethanol to give a final concentration of 1.6 µCi/ml (equivalent to 40 µCi/plate) was blown to dryness under nitrogen. The arachidonic acid was then resuspended in 1 or 2 ml of the cell suspension which was then mixed with the remainder of the cell suspension in a centrifuge bottle. The labelled cell suspension was then plated out into sterile plastic 96 flat-bottomed well plates (250 µl per well) and incubated overnight at 37°C in a moist atmosphere of 5% CO2, 95% air. The following day, non-adherent cells were removed by washing 3 times with sterile phosphate buffered saline (PBS). The adherent peritoneal macrophages were then cultured for a further 24 hours in the presence or absence of drugs, in medium B (see below) at 37° in a 5% CO2 atmosphere in order to measure the effects of drugs on the spontaneous release of arachidonic acid in the absence of stimulus. After this incubation, supernatants were removed to give media 1 and stored in sealed multi-well plates at 4°C prior to scintillation counting. Drugs which potentiated spontaneous release of arachidonic acid (125% of controls) were deemed to be toxic at the concentration at which this phenomenon occurred. The supernatants were replaced by fresh medium C containing fresh drug and a stimulus. Three drugs were tested at six concentrations (100, 50, 20, 10, 5 and 1 µM) in replicates of four on each plate. The other wells contained controls consisting of a positive control (e.g. dexamethasone), medium (B) only and medium C only. Incubation was then continued for a further 5 hours, whereupon the supernatants were collected to give media 2 and the adherent cells washed with PBS. The cells were then lysed with 100 µl of 0.1% TRITON® X100 in a 0.1% solution of bovine serum albumin in 0.9% saline and mechanically disrupted to give cell lysates. These supernatants (media 2) and cell lysates (Cells) were also stored in sealed multi-well plates at 4°C prior to scintillation counting. 200 µl aliquots of media, or 100 µl aliquots of cells were counted using 2 ml of OPTIPHASE "HIGH SAFE" (Trademark of LKB) as scintillant. […] The value for the arachidonic acid release in the absence of stimulus (spontaneous, cpm of media 2) from cells which had been exposed to neither stimulus nor drug was subtracted from all equivalent values (cpm media 2, stimulated with or without drug) to give the net stimulated release. The percentage inhibition of arachidonic acid release caused by a drug may then be calculated using the following equation. % Inhibition = 100 -(net stimulated release in presence of drug x 100)/(net stimulated release in absence of drug) [formula] […] The zymosan stimulant was prepared as follows:- zymosan (200mg) (supplied by Sigma) was added to PBS (20ml). The mixture was boiled for 30 minutes and the volume restored to 20ml with water. The zymosan was harvested by centrifugation at 500Xg for 5 minutes, washed twice by resuspension in PBS (10ml) and centrifugation. After the final separation, the zymosan was resuspended in 20ml PBS and stored as lml aliquots at -20°C. […]
For `c1ccc(OCCN2CCC(CCn3ccnc3)CC2)cc1` [Example 87, 4-[2-(Imidazol-1-yl)ethyl]-1-(2-phenoxyethyl)piperidine], the IC50 was found to be 18 µM.
The same measure, in the same setting: next, `C(=Cc1ccccc1)CN1CCC(CCn2ccnc2)CC1` [Example 90, 1-Cinnamyl-4-[2-(imidazol-1-yl)ethyl]-piperidine]: 31 µM.
Still for that read-out and setting: next, `O=C(CN1CCC(CCn2ccnc2)CC1)Nc1ccc(C(F)(F)F)cc1` [Example 91, 4-[2-(Imidazol-1-yl)ethyl]piperidino-4'-trifluoromethylacetanilide]: 17 µM; `CC(c1ccc(Cl)cc1)N1CCC(CCn2ccnc2)CC1` (stereo not shown) [Example 93, 1-[1-(4-chlorophenyl)ethyl]-4-[2-(imidazol-1-yl)-ethyl]piperidine]: 56 µM.
On the same count and under the same terms, next, `Cl.Cl.c1ccc(CCCN2CCC(CCn3ccnc3)CC2)cc1` [Example 98, 4-[2-(imidazol-1-yl)ethyl]-1-(3-phenylpropyl)piperidine dihydrochloride]: 62 µM; `c1ccc(CCCN2CCC(Cn3ccnc3)CC2)cc1` [Example 102, 4-Imidazol-1-ylmethyl-1-(3-phenylpropyl)piperidine]: 54 µM; `CC1CN(CCCc2ccccc2)CCC1CCn1ccnc1` (stereo not shown) [Example 103, 4-[2-(Imidazol-1-yl)ethyl]-3-methyl-1-(3-phenylpropyl)piperidine]: 28 µM.
On to `c1ccc(CCCN2CCC(CCn3ccnc3-c3ccccc3)CC2)cc1` [Example 109, 4-[2-(2-Phenylimidazol-1-yl)ethyl]-1-(3-phenylpropyl)piperidine], for which the IC50 came to 14 µM.
For `Cc1nc2ccccc2n1CCC1CCN(CCCc2ccccc2)CC1` [Example 112, 2-Methyl-1-{2-[1-(3-phenylpropyl)piperidin-4-yl]ethyl}benzimidazole], the IC50 worked out at 16 µM.
The same measure, in the same setting: in the case of `CC(Cn1ccnc1)C1CCN(CCCc2ccccc2)CC1` (stereo not shown) [Example 113, 4-[2-(Imidazol-1-yl)-1-methylethyl]-1-(3-phenylpropyl)piperidine] it was 33 µM; in that of `c1ccc(CCCN2CCC(CCn3cnc4ccccc43)CC2)cc1` [Example 114, 1-{2-[1-(3-Phenylpropyl)piperidin-4-yl]-ethyl}benzimidazole], 34 µM; in that of `Cc1nc(Cl)c(Cl)n1CCC1CCN(CCCc2ccccc2)CC1` [Example 115, 4-[2-(4,5-Dichloro-2-methylimidazol-1-yl)ethyl]-1-(3-phenylpropyl)piperidine], 31 µM.
Take `Cc1ncn(CCC2CCN(CCCc3ccccc3)CC2)c1C` [Example 116, 4-[2-(4,5-Dimethylimidazol-1-yl)ethyl]-1-(3-phenylpropyl)piperidine]: the IC50 stood at 18 µM.
On the same count and under the same terms, in the case of `Cc1nccn1CCC1CCN(CCCc2ccccc2)CC1` [Example 117, 4-[2-(2-Methylimidazol-1-yl)ethyl]-1-(3-phenylpropyl)piperidine] it was 21 µM; in that of `Cc1ccc(CCCN2CCC(CCn3ccnc3)CC2)cc1` [Example 122, 4-[2-(Imidazol-1-yl)ethyl]-1-[3-(4-methylphenyl)propyl]piperidine], 52 µM; in that of `Clc1ccc(CCCN2CCC(CCn3ccnc3)CC2)cc1` [Example 123, 1-[3-(4-Chlorophenyl)propyl]-4-[2-(imidazol-1-yl)ethyl]piperidine], 35 µM.
Still for that read-out and setting: in the case of `CSc1ccc(CCCN2CCC(CCn3ccnc3)CC2)cc1` [Example 127, 4-[2-(Imidazol-1-yl)ethyl]-1-[3-(4-methylthiophenyl)propyl]piperidine] it was 16 µM; in that of `c1ccc(CCN2CCC(CCn3ccnc3)CC2)cc1` [Example 128, 4-[2-(Imidazol-1-yl)ethyl]-1-phenethylpiperidine], 27 µM; in that of `c1ccc(CCCCN2CCC(CCn3ccnc3)CC2)cc1` [Example 129, 4-[2-(Imidazol-1-yl)ethyl]-1-(4-phenylbutyl)piperidine], 16 µM.

A further assay has as its system paw oedema. Description: Carrageenan-induced rat paw oedema test (Test E). It is filed as in vivo, rats. As to conditions: oral dosing at 100 mg/kg; active = 20% or greater inhibition of paw oedema in at least two out of three tests. The method, then: Female rats, weight range 125-150 g were fasted overnight. One of the hind legs of each animal was marked with a line at the connection between the cuboid/navicular and calcaneus/talus bones. Groups of six rats were orally dosed at 10 ml/kg, in random order, with a given dose of the test compound given as a solution or suspension in 10% (w/v) aqueous acacia solution. One hour after dosing, 0.1 ml of 1% (w/v) sterile carrageenan λ in normal saline was injected deeply into the plantar surface of the marked hind foot of each rat. The volume of the foot (up to the marked line) was measured immediately after injection using duplicate water displacement readings. Three hours after injection the foot volume was measured again and the percentage increase in foot volume relative to the initial reading was calculated. The increase in foot volume (i.e. the degree of oedema) in drug treated animals when compared with that in the drug untreated control gave the degree of inhibition of paw oedema by the drug. […] Statistical significance was assessed using the Student's t test for single dose studies and Dunnett's test for multiple dose studies. More advantageous compounds were active in both Tests D and E.
With `c1ccc(OCCN2CCC(CCn3ccnc3)CC2)cc1` [Example 87, 4-[2-(Imidazol-1-yl)ethyl]-1-(2-phenoxyethyl)piperidine], the “deemed to be active in Test E” value is “active”.
Still for that read-out and setting: in the case of `CC(c1ccc(Cl)cc1)N1CCC(CCn2ccnc2)CC1` (stereo not shown) [Example 93, 1-[1-(4-chlorophenyl)ethyl]-4-[2-(imidazol-1-yl)-ethyl]piperidine] it was “active”; in that of `Cl.Cl.c1ccc(CCCN2CCC(CCn3ccnc3)CC2)cc1` [Example 98, 4-[2-(imidazol-1-yl)ethyl]-1-(3-phenylpropyl)piperidine dihydrochloride], “active”.
